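In this assay, cells in 96-well plates receive the compound at five concentrations for 48 hours. Endpoints are linearly interpolated between the surrounding concentrations. GI50: concentration for 50% inhibition of growth. TGI is the concentration that stops growth completely.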
What was measured:
Assay in all cases: NCI tumour cell line growth inhibition, 48 h
[1] = system: COLO 205 colon
[2] = system: HCT-116 colon
[3] = system: SF-295 CNS
[4] = system: K-562 leukemia
[5] = system: NCI-H522 lung
[6] = system: SN12C renal
[7] = system: SNB-75 CNS
[8] = system: A549 NSCLC
[9] = system: HCT-15 colon
[10] = system: T-47D breast
[11] = system: MCF7 breast
[12] = system: OVCAR-3 ovarian
[13] = system: ACHN renal
[14] = system: MDA-MB-435
[15] = system: NCI-H460 lung
[16] = system: HS 578T breast
[17] = system: PC-3 prostate
[18] = system: OVCAR-5 ovarian
[19] = system: SR leukemia
[20] = system: U251 CNS
[21] = system: MALME-3M melanoma
[22] = system: CCRF-CEM leukemia
[23] = system: UACC-62 melanoma
[24] = system: EKVX NSCLC
[25] = system: IGROV1 ovarian
[26] = system: KM12 colon
[27] = system: MOLT-4 leukemia

CSc1ccc(C2=NN(c3ccccc3)C(c3ccc(-c4cc(Cl)c(Cl)cc4Cl)o3)C2)cc1 (centres undefined)
GI50 [1]: > 100 µM | TGI [1]: > 100 µM | GI50 [2]: > 100 µM | TGI [2]: > 100 µM | GI50 [3]: 54.7 µM | TGI [3]: > 100 µM | GI50 [4]: > 100 µM | TGI [4]: > 100 µM | GI50 [5]: > 100 µM | TGI [5]: > 100 µM | GI50 [6]: > 100 µM | TGI [6]: > 100 µM | GI50 [7]: 27.5 µM | TGI [7]: 85.7 µM | GI50 [8]: > 100 µM | TGI [8]: > 100 µM | GI50 [9]: > 100 µM | TGI [9]: > 100 µM | GI50 [10]: > 100 µM | TGI [10]: > 100 µM | GI50 [11]: > 100 µM | TGI [11]: > 100 µM | GI50 [12]: > 100 µM | TGI [12]: > 100 µM | GI50 [13]: > 100 µM | TGI [13]: > 100 µM | GI50 [14]: > 100 µM | TGI [14]: > 100 µM | GI50 [15]: 89.3 µM | TGI [15]: > 100 µM | GI50 [16]: 46.3 µM | TGI [16]: > 100 µM | GI50 [17]: 63.1 µM | TGI [17]: > 100 µM | GI50 [18]: > 100 µM | TGI [18]: > 100 µM | GI50 [19]: > 100 µM | TGI [19]: > 100 µM | GI50 [20]: 89.2 µM | TGI [20]: > 100 µM | GI50 [21]: > 100 µM | TGI [21]: > 100 µM | GI50 [22]: > 100 µM | TGI [22]: > 100 µM | GI50 [23]: 78.8 µM | TGI [23]: > 100 µM | GI50 [24]: > 100 µM | TGI [24]: > 100 µM | GI50 [25]: > 100 µM | TGI [25]: > 100 µM | GI50 [26]: > 100 µM | TGI [26]: > 100 µM | GI50 [27]: > 100 µM | TGI [27]: > 100 µM

Reference: PubChem BioAssay (NCI)
